{
  "source": "patent US20250195463A1",
  "about": "“ORGANOMETALLIC COMPLEX, CONTROLLED-RELEASE MULTI-FUNCTIONAL DRUG, PHARMACEUTICAL COMPOSITION, PROCESSES FOR THE PREPARATION THEREOF AND THEIR USE” (FACULDADE DE CIÊNCIAS DA UNIVERSIDADE DE LISBOA, priority 2022, published 2025)",
  "key": {"[1]": {"test": "Stability in organic medium (dimethyl sulfoxide) by UV-Vis spectroscopy", "type": "physicochemical", "settings": "for Relative variation of the maximum absorbance of the π→π* transitions: band 289-300 nm (λmax in column head); for Relative variation of the maximum absorbance of the charge transfer bands: band 357-425 nm (λmax in column head)", "method_in_brief": "(§1)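 UV-Vis spectra (270-900 nm) were recorded at intervals from 0 to 24 h, at room temperature in the dark. Solvents were 100% DMSO, or 5% or 10% DMSO in DMEM depending on complex, at 7.0×10^-5 M to 3.0×10^-4 M.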"}, "[2]": {"test": "Stability in aqueous medium (dimethyl sulfoxide/Dulbecco's Modified Eagle Medium) by UV-Vis spectroscopy", "type": "physicochemical", "settings": "5% dimethyl sulfoxide/95% Dulbecco's Modified Eagle Medium; for Relative variation of the maximum absorbance of the π→π* transitions: band 292-296 nm (λmax in column head); for Relative variation of the maximum absorbance of the charge transfer bands: band 358-400 nm (λmax in column head)", "method_in_brief": "as §1"}, "[3]": {"tested_on": "MDA-MB-231 (FGFR−)", "test": "MTT cytotoxicity assay", "settings": "MDA-MB-231", "description": "By way of example, the in vitro cytotoxicity of the conjugate RuPC1, complex 4 and peptide P2 was determined in four human breast cancer cell lines with different levels of expression of the receptor FGFR, namely MDA-MB-231 (FGFR−), MCF-7 (FGFR−), SK-BR-3 (FGFR+), and MDA-MB-134-VI (FGFR+). The cytotoxicity of RuPC1 was also determined in the stated cell lines at controlled pH 6.8 and 7.4. The cytotoxicity of the complexes 5, 8, 9, and the reference complex (2,2′-bipyridyl)(triphenylphosphane)(f-cyclopentadienyl)ruthenium(II) trifluoromethanesulfonate, [RuCp(PPh3)(bipy)][CF3SO3] (TM34) was only determined in the cell line MDA-MB-231. All the cell lines were from the American Type Culture Collection (ATCC) and were cultured in Dulbecco's Modified Eagle Medium+Glutamax-I (Gibco) supplemented with 10% fetal bovine serum (FBS) and 1% antibiotics, excepting the MDA-MB-134-VI for which it was used the double amount of FBS. The cell cultures were kept in an incubator Heraeus at 37° C. under humidified atmosphere at 5% CO2. The cell viability was evaluated resorting to the MTT ([3-(4,5-dimethylthiazol-2-yl)-2,5-diphenyltetrazolium bromide]) colorimetric assay, which is based on the reduction of the tetrazolium salt to purple formazan by mitochondrial dehydrogenases in metabolically active cells. For the assays, the cells were seeded in 96-well plates (2×10^4 to 3×10^4 cells/200 μL) and allowed to adhere overnight. The compounds were first dissolved in dimethyl sulfoxide to obtain 10 mM stock solutions, further used to prepare the working solutions, at 0.1 to 100 μM, by dilution in the cell culture medium. Alternatively, for the assays at controlled pH 6.8 and 7.4, RuPC1 was first dissolved in a solution of 15% dimethyl sulfoxide/85% phosphate buffer (10 mM in water) to obtain 1.5 mM stock solutions further incubated for 48 hours at both pH values prior to be used to prepare the working solutions, at 0.1 to 50 μM, by dilution in the cell culture medium. In both cases, after continuous exposure of the cells to the compounds for 48 h at 37° C., the medium was removed and the cells were incubated with 200 μL of MTT solution (0.5 mg/mL) for 3 h. Then, the solution was discarded and the purple formazan formed by the viable cells was dissolved in 200 μL of dimethyl sulfoxide. The cell viability (%) was determined relative to the control (cells incubated without compounds) by measuring the absorbance at 570 nm on a PowerWave Xs Bio-Tek Instruments plate spectrophotometer. The respective values of the half maximal inhibitory concentration (IC50) were calculated with the software GraphPad Prism. All the compounds were tested in at least two independent experiments, each comprising six replicates per concentration."}},
  "data": [
    {"smiles": "CC(=O)C1=C[CH]([Ru-]2([PH](c3ccccc3)(c3ccccc3)c3ccccc3)[n+]3ccccc3-c3cccc[n+]32)C=C1.O=S(=O)([O-])C(F)(F)F", "note": "(stereo not shown) [compound 5]", "values": [
      {"measurement": "Relative variation of the maximum absorbance of the π→π* transitions", "setting": "[1]; time 0 h", "value": 0.0, "unit": "%"},
      {"measurement": "Relative variation of the maximum absorbance of the charge transfer bands", "setting": "[1]; time 0 h", "value": 0.0, "unit": "%"},
      {"measurement": "Relative variation of the maximum absorbance of the π→π* transitions", "setting": "[1]; time 0.25 h", "value": 0.3, "unit": "%"},
      {"measurement": "Relative variation of the maximum absorbance of the charge transfer bands", "setting": "[1]; time 0.25 h", "value": 0.1, "unit": "%"},
      {"measurement": "Relative variation of the maximum absorbance of the π→π* transitions", "setting": "[1]; time 0.5 h", "value": "−0.5", "unit": "%"},
      {"measurement": "Relative variation of the maximum absorbance of the charge transfer bands", "setting": "[1]; time 0.5 h", "value": 0.0, "unit": "%"},
      {"measurement": "Relative variation of the maximum absorbance of the π→π* transitions", "setting": "[1]; time 0.75 h", "value": "−0.4", "unit": "%"},
      {"measurement": "Relative variation of the maximum absorbance of the charge transfer bands", "setting": "[1]; time 0.75 h", "value": 0.2, "unit": "%"},
      {"measurement": "Relative variation of the maximum absorbance of the π→π* transitions", "setting": "[1]; time 1 h", "value": "−0.3", "unit": "%"},
      {"measurement": "Relative variation of the maximum absorbance of the charge transfer bands", "setting": "[1]; time 1 h", "value": 0.1, "unit": "%"},
      {"measurement": "Relative variation of the maximum absorbance of the π→π* transitions", "setting": "[1]; time 2 h", "value": "−0.9", "unit": "%"},
      {"measurement": "Relative variation of the maximum absorbance of the charge transfer bands", "setting": "[1]; time 2 h", "value": 0.3, "unit": "%"},
      {"measurement": "Relative variation of the maximum absorbance of the π→π* transitions", "setting": "[1]; time 3 h", "value": "−1.2", "unit": "%"},
      {"measurement": "Relative variation of the maximum absorbance of the charge transfer bands", "setting": "[1]; time 3 h", "value": 0.3, "unit": "%"},
      {"measurement": "Relative variation of the maximum absorbance of the π→π* transitions", "setting": "[1]; time 4 h", "value": "−1.2", "unit": "%"},
      {"measurement": "Relative variation of the maximum absorbance of the charge transfer bands", "setting": "[1]; time 4 h", "value": 0.3, "unit": "%"},
      {"measurement": "Relative variation of the maximum absorbance of the π→π* transitions", "setting": "[1]; time 5 h", "value": "−1.5", "unit": "%"},
      {"measurement": "Relative variation of the maximum absorbance of the charge transfer bands", "setting": "[1]; time 5 h", "value": 0.5, "unit": "%"},
      {"measurement": "Relative variation of the maximum absorbance of the π→π* transitions", "setting": "[1]; time 6 h", "value": "−1.5", "unit": "%"},
      {"measurement": "Relative variation of the maximum absorbance of the charge transfer bands", "setting": "[1]; time 6 h", "value": 0.2, "unit": "%"},
      {"measurement": "Relative variation of the maximum absorbance of the π→π* transitions", "setting": "[1]; time 24 h", "value": "−1.9", "unit": "%"},
      {"measurement": "Relative variation of the maximum absorbance of the charge transfer bands", "setting": "[1]; time 24 h", "value": 0.3, "unit": "%"},
      {"measurement": "Relative variation of the maximum absorbance of the π→π* transitions", "setting": "[2]; time 0 h", "value": 0.0, "unit": "%"},
      {"measurement": "Relative variation of the maximum absorbance of the charge transfer bands", "setting": "[2]; time 0 h", "value": 0.0, "unit": "%"},
      {"measurement": "Relative variation of the maximum absorbance of the π→π* transitions", "setting": "[2]; time 0.25 h", "value": 0.6, "unit": "%"},
      {"measurement": "Relative variation of the maximum absorbance of the charge transfer bands", "setting": "[2]; time 0.25 h", "value": "−1.0", "unit": "%"},
      {"measurement": "Relative variation of the maximum absorbance of the π→π* transitions", "setting": "[2]; time 0.5 h", "value": "−0.1", "unit": "%"},
      {"measurement": "Relative variation of the maximum absorbance of the charge transfer bands", "setting": "[2]; time 0.5 h", "value": "−2.1", "unit": "%"},
      {"measurement": "Relative variation of the maximum absorbance of the π→π* transitions", "setting": "[2]; time 0.75 h", "value": 0.3, "unit": "%"},
      {"measurement": "Relative variation of the maximum absorbance of the charge transfer bands", "setting": "[2]; time 0.75 h", "value": "−2.7", "unit": "%"},
      {"measurement": "Relative variation of the maximum absorbance of the π→π* transitions", "setting": "[2]; time 1 h", "value": 0.0, "unit": "%"},
      {"measurement": "Relative variation of the maximum absorbance of the charge transfer bands", "setting": "[2]; time 1 h", "value": "−3.4", "unit": "%"},
      {"measurement": "Relative variation of the maximum absorbance of the π→π* transitions", "setting": "[2]; time 2 h", "value": 1.0, "unit": "%"},
      {"measurement": "Relative variation of the maximum absorbance of the charge transfer bands", "setting": "[2]; time 2 h", "value": "−1.2", "unit": "%"},
      {"measurement": "Relative variation of the maximum absorbance of the π→π* transitions", "setting": "[2]; time 3 h", "value": 0.7, "unit": "%"},
      {"measurement": "Relative variation of the maximum absorbance of the charge transfer bands", "setting": "[2]; time 3 h", "value": "−3.4", "unit": "%"},
      {"measurement": "Relative variation of the maximum absorbance of the π→π* transitions", "setting": "[2]; time 4 h", "value": 0.7, "unit": "%"},
      {"measurement": "Relative variation of the maximum absorbance of the charge transfer bands", "setting": "[2]; time 4 h", "value": "−4.1", "unit": "%"},
      {"measurement": "Relative variation of the maximum absorbance of the π→π* transitions", "setting": "[2]; time 5 h", "value": 0.7, "unit": "%"},
      {"measurement": "Relative variation of the maximum absorbance of the charge transfer bands", "setting": "[2]; time 5 h", "value": "−5.1", "unit": "%"},
      {"measurement": "Relative variation of the maximum absorbance of the π→π* transitions", "setting": "[2]; time 6 h", "value": 2.1, "unit": "%"},
      {"measurement": "Relative variation of the maximum absorbance of the charge transfer bands", "setting": "[2]; time 6 h", "value": 0.3, "unit": "%"},
      {"measurement": "Relative variation of the maximum absorbance of the π→π* transitions", "setting": "[2]; time 24 h", "value": "−1.8", "unit": "%"},
      {"measurement": "Relative variation of the maximum absorbance of the charge transfer bands", "setting": "[2]; time 24 h", "value": "−3.0", "unit": "%"},
      {"measurement": "IC50 range in words", "setting": "[3]; Example 24", "value": "sub-micromolar range"},
      {"measurement": "IC50", "setting": "[3]; read-out: Cytotoxic activity expressed as IC50, Table 5, 48 h, 37° C.", "value": 0.36, "unit": "µM"}
    ]}
  ]
}
